Among the data in ChEMBL document CHEMBL1145799, “Spirocyclopropyl beta-lactams as mechanism-based inhibitors of serine beta-lactamases. Synthesis by rhodium-catalyzed cyclopropanation of 6-diazopenicillanate sulfone” (J Med Chem, 2003) are IC50 and MIC values, retold here.

SMILES strings stand for the structures. A value given as a limit tells only on which side of the number the result lay.

One test addresses Beta-lactamase (Enterobacter cloacae, UniProt P05364). In words: In vitro inhibitory activity against Beta-lactamase AmpC of class C enzyme.
Test [1] concerns the target Beta-lactamase TEM (Escherichia coli) (UniProt P62593).
Description: In vitro antibacterial activity against Escherichia coli GC4206 Beta-lactamase TEM-1 of class A enzyme
Test [2] deals with Beta-lactamase (Enterobacter cloacae) (UniProt P05364). To be noted: Pseudomonas aeruginosa.
Beta-lactamase (Enterobacter cloacae), sequence (P05364 21-381 limits assumed): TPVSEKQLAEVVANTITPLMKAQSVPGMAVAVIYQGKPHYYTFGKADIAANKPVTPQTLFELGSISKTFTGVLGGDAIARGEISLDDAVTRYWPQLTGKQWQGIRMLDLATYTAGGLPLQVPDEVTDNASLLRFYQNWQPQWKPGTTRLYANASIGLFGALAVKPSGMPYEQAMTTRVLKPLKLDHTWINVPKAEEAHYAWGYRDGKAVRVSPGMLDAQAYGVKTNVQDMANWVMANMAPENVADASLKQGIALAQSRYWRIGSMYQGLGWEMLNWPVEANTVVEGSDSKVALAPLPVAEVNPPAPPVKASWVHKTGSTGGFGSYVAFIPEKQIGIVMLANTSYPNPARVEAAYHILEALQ
Description: In vitro antibacterial activity against Pseudomonas aeruginosa Beta-lactamase AmpC of class C enzyme
Test [3] has the same target. Particulars: Serratia marcescens.
For a further test, the system named is Escherichia coli. In words: In vitro antibacterial activity against Escherichia coli GC6265. The format is functional.
The subject of a further test is Serratia marcescens. In words: In vitro antibacterial activity against Serratia marcescens GC4132 Beta-lactamase AmpC of class C enzyme. The format is functional.

Beta-lactamase TEM (Escherichia coli), sequence (P62593 whole entry): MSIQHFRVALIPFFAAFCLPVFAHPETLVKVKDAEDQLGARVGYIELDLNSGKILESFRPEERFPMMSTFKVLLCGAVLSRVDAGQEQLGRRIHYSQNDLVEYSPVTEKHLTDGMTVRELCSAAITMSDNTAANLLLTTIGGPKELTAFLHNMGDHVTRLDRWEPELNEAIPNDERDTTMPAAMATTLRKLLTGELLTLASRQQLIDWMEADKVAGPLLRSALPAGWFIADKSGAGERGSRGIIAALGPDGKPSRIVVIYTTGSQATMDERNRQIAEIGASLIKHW
Beta-lactamase, sequence (P05364 whole entry): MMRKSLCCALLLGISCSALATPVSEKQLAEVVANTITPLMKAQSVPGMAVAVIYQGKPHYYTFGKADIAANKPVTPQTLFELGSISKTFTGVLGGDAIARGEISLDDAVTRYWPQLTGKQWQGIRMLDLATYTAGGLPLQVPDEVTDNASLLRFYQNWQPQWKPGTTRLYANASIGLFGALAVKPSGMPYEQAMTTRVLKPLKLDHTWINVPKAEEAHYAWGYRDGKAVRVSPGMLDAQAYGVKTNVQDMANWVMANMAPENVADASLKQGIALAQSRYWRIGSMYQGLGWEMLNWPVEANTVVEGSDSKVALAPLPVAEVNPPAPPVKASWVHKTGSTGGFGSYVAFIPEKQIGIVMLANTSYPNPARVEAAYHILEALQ

The molecule `CC1(C)[C@H](C(=O)O)N2C(=O)[C@@]3(C[C@@H]3OC3CCCCC3)[C@H]2S1(=O)=O` came in with an IC50 against Beta-lactamase of 3200 nM.
Turning to `CC(C)(C)[Si](C)(C)O[C@H]1C[C@]12C(=O)N1[C@@H](C(=O)O)C(C)(C)S(=O)(=O)[C@@H]12.CCN1CCN(C(=O)N[C@@H](C(=O)N[C@@H]2C(=O)N3[C@@H]2SC(C)(C)[C@@H]3C(=O)O)c2ccccc2)C(=O)C1=O` [listing 1 of 2 here], the MIC in test [1] is 4 µg/mL; in test [2], 8 µg/mL; in test [3] it was 8 µg/mL.
With `CC1(C)[C@H](C(=O)O)N2C(=O)[C@@]3(C[C@H]3OC3CCCCC3)[C@H]2S1(=O)=O`, the IC50 against Beta-lactamase was > 3200 nM.
In turn, `CC1(C)[C@H](C(=O)O)N2C(=O)[C@]3(C[C@@H]3OC3CCCCC3)[C@H]2S1(=O)=O.CCN1CCN(C(=O)N[C@@H](C(=O)N[C@@H]2C(=O)N3[C@@H]2SC(C)(C)[C@@H]3C(=O)O)c2ccccc2)C(=O)C1=O` [listing 1 of 2 here] returned an MIC in the test on Escherichia coli of 64 µg/mL.
Still for that read-out and setting: for `CC(C)(C)[Si](C)(C)O[C@H]1C[C@]12C(=O)N1[C@@H](C(=O)O)C(C)(C)S(=O)(=O)[C@@H]12.CCN1CCN(C(=O)N[C@@H](C(=O)N[C@@H]2C(=O)N3[C@@H]2SC(C)(C)[C@@H]3C(=O)O)c2ccccc2)C(=O)C1=O` [listing 2 of 2 here] the value was < 0.06 µg/mL.
As to `CC1(C)[C@H](C(=O)O)N2C(=O)[C@]3(C[C@@H]3OC3CCCCC3)[C@H]2S1(=O)=O.CCN1CCN(C(=O)N[C@@H](C(=O)N[C@@H]2C(=O)N3[C@@H]2SC(C)(C)[C@@H]3C(=O)O)c2ccccc2)C(=O)C1=O` [listing 2 of 2 here], the MIC in test [1] worked out at 8 µg/mL.
As for `CC(C)(C)[Si](C)(C)O[C@@H]1CC12C(=O)N1[C@@H](C(=O)O)C(C)(C)S(=O)(=O)[C@@H]12` (single isomer, unassigned), the concentration for half-maximal inhibition (IC50) on Beta-lactamase was found to be 400 nM. This lies in the sub-micromolar range.
Regarding `CCN1CCN(C(=O)N[C@@H](C(=O)N[C@@H]2C(=O)N3[C@@H]2SC(C)(C)[C@@H]3C(=O)O)c2ccccc2)C(=O)C1=O` [PIPERACILLIN], the MIC with Escherichia coli is > 64 µg/mL.
Molecule `CCN1CCN(C(=O)N[C@@H](C(=O)N[C@@H]2C(=O)N3[C@@H]2SC(C)(C)[C@@H]3C(=O)O)c2ccccc2)C(=O)C1=O.C[C@]1(Cn2ccnn2)[C@H](C(=O)O)N2C(=O)C[C@H]2S1(=O)=O` [listing 1 of 2 here] yielded an MIC in test [1] of 4 µg/mL.
As for `CC(C)(C)[Si](C)(C)O[C@H]1C[C@]12C(=O)N1[C@@H](C(=O)O)C(C)(C)S(=O)(=O)[C@@H]12`, half-maximal inhibition on Beta-lactamase (IC50) was put at 20 nM. This lies in the double-digit nanomolar range.
Same read-out and setting: for `CC1(C)[C@H](C(=O)O)N2C(=O)[C@]3(C[C@@H]3OC3CCCCC3)[C@H]2S1(=O)=O` the value was 30 nM; for `CC(C)(C)[Si](C)(C)O[C@H]1CC12C(=O)N1C(C(=O)O)C(C)(C)S(=O)(=O)[C@@H]12` (single isomer, unassigned), 4100 nM.
`CCN1CCN(C(=O)N[C@@H](C(=O)N[C@@H]2C(=O)N3[C@@H]2SC(C)(C)[C@@H]3C(=O)O)c2ccccc2)C(=O)C1=O.C[C@]1(Cn2ccnn2)[C@H](C(=O)O)N2C(=O)C[C@H]2S1(=O)=O` [listing 2 of 2 here]: the MIC in the test with Serratia marcescens was 32 µg/mL.

Usually IC50 stands for the concentration that gives 50% inhibition. The low end stands for greater potency in that assay, the high end for weaker potency in that assay.
